Seven compounds from ChEMBL document CHEMBL1201862, “PubChem BioAssay data set” (2004) can be followed below.

Test systems include BT-549; NCI/ADR-RES; SK-MEL-28; SR; SNB-75; OVCAR-3; UACC-257; UO-31; CAKI-1; A498; OVCAR-8; HCC 2998; HCT-15; NCI-H522; KM12; TK-10; OVCAR-5; EKVX; SF-295; SK-MEL-2.
Assay in all cases: inhibition of tumour cell growth, NCI panel, 48 h

SMILES strings stand for the structures.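 Grown in 96-well plates, cells were treated for 48 hours with each compound at five concentrations. Insufficient inhibition: endpoint recorded as highest concentration tested. GI50 = concentration required for 50% inhibition of growth.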 Calls of active or inactive are those of the source. Rule as the data show it: active = GI50 up to about 1.1 µM and inactive = higher. A value given as a limit tells only on which side of the number the result lay.

Turning to `Nc1cccc2cc(Cl)cnc12`, the GI50 with BT-549 was > 100 µM (inactive); in the assay with NCI/ADR-RES it was > 100 µM (inactive); in the assay on SK-MEL-28, > 100 µM (inactive); in the assay on SR, > 100 µM (inactive); in the assay with SNB-75, 34.4 µM (inactive); in the assay on OVCAR-3 it was 96.8 µM (inactive). The GI50 in the assay on UACC-257 is > 100 µM (inactive); with UO-31, 26.7 µM (inactive); in the assay on CAKI-1, > 100 µM (inactive); in the assay on A498, > 100 µM (inactive); in the assay on OVCAR-8, > 100 µM (inactive); in the assay with HCC 2998, > 100 µM (inactive). Moreover, the GI50 in the assay on HCT-15 was more than 100 µM; with NCI-H522 it was > 100 µM (inactive); in the assay with KM12 it was > 100 µM (inactive); in the assay with TK-10, > 100 µM (inactive); in the assay on OVCAR-5 it was > 100 µM (inactive); in the assay on EKVX, > 100 µM (inactive). Also, the GI50 in the assay on SF-295 was > 100 µM (inactive).
For the compound `NCC(=O)C(O)C(O)C(O)CO` (stereo not given), the GI50 in the assay on BT-549 was > 100 µM (inactive); in the assay with NCI/ADR-RES, > 100 µM (inactive); with SK-MEL-28, > 100 µM (inactive); in the assay with SR it was > 100 µM (inactive); in the assay on SNB-75, 65.9 µM (inactive); in the assay on OVCAR-3 it was > 100 µM (inactive). Also, the GI50 in the assay on UACC-257, in the assay with UO-31, in the assay on CAKI-1, with A498, in the assay with OVCAR-8 and with HCC 2998 was > 100 µM (inactive) throughout. The GI50 is more than 100 µM in the assay on HCT-15; > 100 µM (inactive) in the assay with NCI-H522; > 100 µM (inactive) in the assay with KM12; > 100 µM (inactive) in the assay on TK-10; > 100 µM (inactive) with OVCAR-5; > 100 µM (inactive) in the assay on EKVX. For the same compound, the GI50 in the assay on SK-MEL-2 and with SF-295 was > 100 µM (inactive) each time.
As for `Nc1nc(Cl)c(Cl)c(NCC2(O)CCC2)n1`, the GI50 with BT-549 is 44.6 µM (inactive); in the assay with NCI/ADR-RES, 45 µM (inactive); in the assay on SK-MEL-28, > 100 µM (inactive); in the assay with SR, 47.5 µM (inactive); in the assay with SNB-75, > 100 µM (inactive); in the assay with OVCAR-3, 51.2 µM (inactive). Further, the GI50 in the assay with UACC-257 is > 100 µM (inactive); in the assay on UO-31, 31.2 µM (inactive); in the assay with CAKI-1 it was 16.1 µM (inactive); with A498, 11.4 µM (inactive); with OVCAR-8, 92.9 µM (inactive); in the assay on HCC 2998, 88.3 µM (inactive). Also, the GI50 in the assay with HCT-15 is 38.9 µM; with NCI-H522, 18.3 µM (inactive); with KM12 it was > 100 µM (inactive); with TK-10, > 100 µM (inactive); in the assay on OVCAR-5, > 100 µM (inactive); in the assay with EKVX, 22 µM (inactive). In addition, the results for the GI50 with SK-MEL-2 and in the assay on SF-295 were > 100 µM (inactive) and 43.9 µM (inactive), respectively.
Regarding `COC(=O)[C@@H]1[C@H](OC(C)=O)CCC2[C@@]3(C[C@@H](c4ccoc4)O[C@@H]3OC)[C@H](C)CC[C@]21C(=O)OC` (stereo not given in full), the GI50 in the assay with BT-549, with NCI/ADR-RES, in the assay on SR, in the assay on SNB-75, with OVCAR-3 and with UACC-257 was > 25 µM (inactive) throughout. Moreover, the GI50 in the assay with UO-31 is > 25 µM (inactive); in the assay on CAKI-1, > 25 µM (inactive); in the assay on A498 it was > 25 µM (inactive); in the assay on OVCAR-8 it was > 25 µM (inactive); in the assay on HCC 2998 it was > 25 µM (inactive); in the assay with HCT-15 it was more than 25 µM. In addition, the GI50 with NCI-H522, in the assay with KM12, with TK-10, with OVCAR-5, in the assay with EKVX and with SK-MEL-2 was > 25 µM (inactive) each time. The GI50 in the assay with SF-295 was > 25 µM (inactive).
`Cc1c(C)c(S(=O)(=O)N(CCCCCN)OCCCN)c(C)c2c1OC(C)(C)CC2`: the GI50 in the assay with BT-549 is 13.5 µM (inactive); in the assay on NCI/ADR-RES it was 20.6 µM (inactive); in the assay on SK-MEL-28, 18.9 µM (inactive); in the assay on SR, 1.61 µM (inactive); with SNB-75 it was 6.4 µM (inactive); in the assay with OVCAR-3, 5.9 µM (inactive). The GI50 in the assay with UACC-257 was 13.8 µM (inactive); in the assay on UO-31 it was 20.1 µM (inactive); in the assay on CAKI-1, 20.5 µM (inactive); in the assay on A498, 18.6 µM (inactive); in the assay on OVCAR-8 it was 15.6 µM (inactive); in the assay on HCC 2998 it was 2.27 µM (inactive). In addition, the GI50 with HCT-15 was 18.6 µM; in the assay on NCI-H522 it was 6.28 µM (inactive); with KM12, 2.92 µM (inactive); in the assay with TK-10, 16.2 µM (inactive); with OVCAR-5 it was 24.8 µM (inactive); in the assay with EKVX it was 11.4 µM (inactive). Also, the GI50 in the assay with SK-MEL-2 was 4.75 µM (inactive); in the assay on SF-295, 17.4 µM (inactive).
`N#Cc1c(-c2ccc([N+](=O)[O-])cc2)cc(-c2ccc(Nc3ccnc4cc(C(F)(F)F)ccc34)cc2)[nH]c1=O`: the GI50 in the assay with BT-549, with NCI/ADR-RES, with SK-MEL-28, in the assay with SR, in the assay on SNB-75 and with UACC-257 was > 100 µM (inactive) in each case. The GI50 with UO-31 is > 100 µM (inactive); with CAKI-1, > 100 µM (inactive); in the assay with A498 it was > 100 µM (inactive); in the assay with OVCAR-8, > 100 µM (inactive); in the assay with HCC 2998, > 100 µM (inactive); in the assay on HCT-15, more than 100 µM. Also, the GI50 is > 100 µM (inactive) in the assay on NCI-H522; 52.2 µM (inactive) in the assay on TK-10; 21.4 µM (inactive) in the assay with OVCAR-5; > 100 µM (inactive) with EKVX; > 100 µM (inactive) with SK-MEL-2; > 100 µM (inactive) in the assay on SF-295.
For `Cc1cc(Cl)ccc1C(=O)c1ccc2ccccc2c1C(=O)O`, the GI50 in the assay on BT-549 was > 100 µM (inactive); in the assay on NCI/ADR-RES, > 100 µM (inactive); with SK-MEL-28, > 100 µM (inactive); with SR, > 100 µM (inactive); with SNB-75 it was 85.3 µM (inactive); in the assay with OVCAR-3, > 100 µM (inactive). Also, the GI50 with UACC-257 was > 100 µM (inactive); with UO-31, > 100 µM (inactive); in the assay on CAKI-1, > 100 µM (inactive); in the assay on A498, > 100 µM (inactive); in the assay with OVCAR-8, > 100 µM (inactive); with HCC 2998, 71.6 µM (inactive). The GI50 with HCT-15 is more than 100 µM; with NCI-H522, > 100 µM (inactive); in the assay on KM12, > 100 µM (inactive); with TK-10, > 100 µM (inactive); in the assay on OVCAR-5, > 100 µM (inactive); in the assay on SK-MEL-2 it was > 100 µM (inactive). Also, the GI50 with SF-295 is 98.9 µM (inactive).
